The source of these data is patent publication US20080096807A1, “Cyclic vasoactive intestinal peptide receptor-2 agonists” (priority 2006, published 2008).

One data set has as its target T1, VPAC2 receptor (Homo sapiens, UniProt P41587).
T1 construct: The human T-lymphoid cell line Sup-Ti, which expresses the VPAC2 receptor; host or cells: Sup-T1 (Sup-Ti [sic]) human T-lymphoid cell line
T1 sequence (P41587 24-438): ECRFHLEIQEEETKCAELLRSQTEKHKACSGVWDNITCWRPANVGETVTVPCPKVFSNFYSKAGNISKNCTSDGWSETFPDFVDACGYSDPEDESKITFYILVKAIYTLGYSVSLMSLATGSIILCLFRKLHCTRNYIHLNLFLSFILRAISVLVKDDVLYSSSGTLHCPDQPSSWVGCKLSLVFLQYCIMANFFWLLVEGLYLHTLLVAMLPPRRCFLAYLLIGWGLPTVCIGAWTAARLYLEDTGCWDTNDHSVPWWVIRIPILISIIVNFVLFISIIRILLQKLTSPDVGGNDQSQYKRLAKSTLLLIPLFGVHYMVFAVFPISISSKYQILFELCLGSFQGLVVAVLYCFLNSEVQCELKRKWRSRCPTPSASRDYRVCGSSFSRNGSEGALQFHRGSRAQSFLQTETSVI
The data set is described as follows: Sup-T1 cAMP agonist assay. The class given is cell-based. To be noted: human T-lymphoid cell line Sup-T1 expressing VPAC2 receptor; cAMP EIA; 5 min at room temperature; read-out: Sup-T1 cAMP EC50. As for the experimental part: The human T-lymphoid cell line Sup-Ti, which expresses the VPAC2 receptor, was obtained from the American Type Culture Collection (ATCC, CRL-1942) and maintained in growth medium at densities between 0.2 and 2×10^6 cells/ml in a 37° C. CO2 incubator. The growth medium was RPMI 1640 (Invitrogen) supplemented with 25 mM HEPES buffer and 10% fetal bovine serum (Gemini Bioproducts).
To evaluate VPAC2 agonist compound activity, cells in log-phase growth were washed once with growth medium at room temperature and plated into 96-well plates at a density of 4×10^4 cells per well in 150 uL of growth medium. Fifty uL of the compounds to be tested, prepared at appropriate concentrations in growth medium, were then added to designated wells. After 5 min at room temperature, the cells were lysed by adding 25 uL of lysis reagent 1A (cAMP Biotrak EIA system, Amersham Biosciences, RPN225) to each well. The 96-well plates were kept at room temperature for 10 min with shaking and then stored at 4° C. until analysis for cAMP (within 2 hr).
Cyclic AMP levels were determined in 100 uL of each lysate using the cAMP Biotrak Enzymeimmunoassay (EIA) kit according to the manufacture's instructions (Amersham Biosciences, RPN225). The activity of each VPAC2 agonist compound (EC50 value) was estimated by fitting the 7-concentration dose response data to a sigmoidal dose-response equation provided by the GraphPad Prism program (GraphPad Software, Inc.).

Data set [1] deals with T2, human neutrophil elastase (Homo sapiens, UniProt P08246).
T2 sequence (P08246 30-247 limits assumed): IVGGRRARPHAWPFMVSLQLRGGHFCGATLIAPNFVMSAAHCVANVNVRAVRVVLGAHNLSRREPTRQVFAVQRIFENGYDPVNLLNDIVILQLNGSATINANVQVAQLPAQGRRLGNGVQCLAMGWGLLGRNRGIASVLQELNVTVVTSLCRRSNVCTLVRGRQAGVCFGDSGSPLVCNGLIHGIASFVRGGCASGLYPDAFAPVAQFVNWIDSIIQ
As to the kind of experiment: Peptide stability to neutrophil elastase (RP HPLC ESI MS). The conditions noted are these: halftime with human neutrophil elastase 1 to 2 μg/mL in PBS, ambient temperature, normalized to halftime of the reference standard.
Procedure: The proteolytic stabilities of peptide analogs were established with reversed phase high pressure liquid chromatography (RP HPLC) electrospray ionization mass spectrometry (ESI MS). Peptide analogs were incubated with human neutrophile elastase and the quantity of undigested analogs was determined by ESI MS at appropriate time points. Multiple peptide analogs could be included in one experiment as long as they could be differentiated by HPLC retention time and/or by molecular weight. Ac-His Ac-[sequence]Nle-[sequence]NH2 was used in all experiments as a control and as a reference standard. The simultaneous use of multiple peptide analogs together with a reference standard allowed for compensation for variations in the proteolytic fidelity of the enzyme over the multiple experiments. Integrated ion currents obtained for the individual undigested peptide were used for quantitation. For calculation of halftime first-order kinetic behavior was assumed and all calculations were normalized to the halftime of the reference standard.
Peptide stock solutions were prepared in water to a concentration of 2.5 mg/mL. Unless in use, all stock solutions were kept at −20° C. […] Concentrations of the peptide analogs were adjusted accordingly. In order to do the proteolytic digestion, peptides were dissolved in phosphate buffered saline (PBS) to a concentration of 0.1 mg/mL. As many as six different peptide analogs were mixed into one 50 μL reaction volume. The reference standard was added to all experiments as a reference and internal standard. Elastase (Human Neutrophil, Calbiochem, Cat # 324681) was added from an elastase stock solution to a concentration of 1 to 2 μg/mL. Different amounts of the enzyme were chosen to compensate for the differences in the proteolytic stabilities of the peptide analogs. Previously, a stock solution of elastase was prepared in water at a concentration of 1 mg/mL. Small aliquots of the enzyme stock solution were kept at −20° C. to better maintain the enzyme activity by limiting the number of thaw and freeze cycles.
The digestion was done at ambient temperature in an autosampler tube within the autosampler of the HPLC system (Agilent 1100 Series). For a time course, 5 μL aliquots were injected in 70 minute intervals onto the reversed phase HPLC column (Phenomenex, Luna C18, 3μ, 100 ↑, 150×2.00 mm). For the starting time point an aliquot was injected just prior to the addition of the proteolytic enzyme. A total of eight time points could be recorded from one experiment, including the starting point. Peptides were separated on the reversed phase column with a 50 minute gradient of 5% to 30% organic phase. The aqueous phase was 0.05% (v/v) of trifluoroacetic acid in water and the organic one was 0.045% (v/v) of trifluoroacetic acid in acetonitrile. Absorbances were recorded at 214 and 280 nm respectively. All of the column effluent was introduced into the turbo V source of the electrospray ionization mass spectrometer (ABI 4000 QTrap LC/MS/MS System). Mass spectra were acquired in Q3MS mode in a mass range to include all triply charged ions of the non degraded peptide analogs. Care was taken to assure that peptide analogs could clearly be differentiated either by the chromatographic retention time or by the difference in molecular weight. Relative quantities of the respective undigested peptide analog were calculated from the integrated total ion current. A window of 2.5 Da was chosen and the manufacturer's software was used to integrate the individual ion currents. The overall halftime of an individual peptide analog was calculated by assuming first-order kinetic behavior and was normalized with respect to the halftime of the reference standard.

The test system of data set [2] is LPS-induced lung inflammation in male C57BL/6 mice. The data set is described as follows: LPS-induced lung inflammation in male C57BL/6 mice (BAL neutrophilia). The class given is in vivo. To be noted: BAL fluid neutrophilia. As for the experimental part: C57bl/6 mice are pretreated with vehicle or drug prior to an aerosol expose to lipopolysacchride (LPS, 500 μg/ml in sterile saline) for 15-30 minutes. The aerosol is generated by a Pari Ultra neb jet nebulizer, the outlet of which is connected to a small clear plastic chamber [H×W×D, 10.7×25.7×11 cm (4×10×4.5 in)] containing the animals. Bronchoalveolar lavage (BAL) is performed 24 hr later to determine the intensity of cell inflammation. BAL procedure is performed as described below.
Mice are pretreated with vehicle or drug prior to an intranasal administration of lipopolysacchride (0.05-0.3 mg/kg in sterile saline; 50 μl total volume, 25 μl/nostril). Intranasal administration is performed by presenting small droplets of the dosing solution at the nostril using a 25-50 μl eppendorff pipet. BAL is performed 3 to 24 h post LPS challenged as described above to determine the intensity of cell inflammation.
24 h following LPS exposure, animals are anesthetized with pentobarbital (80-100 mg/kg, i.p.), ketamine/xyzaline (80-120 mg/kg/2-4 mg/kg, i.p.) or urethane (1.5-2.4 g/kg, i.p.); and through a small midline neck incision (15-20 mm), the trachea is exposed and cannulated with 20-gauge tubing adapter. Lungs are lavaged with 2×1 ml sterile Hank's balanced salt solution without Ca++ and Mg++(HBSS). Lavage fluid is recovered after 30 sec by gentle aspiration and pooled for each animal. Samples are then centrifuged at 2000 rpm for 10 minutes at 5° C. Supernatant is aspirated, and red blood cells are lysed from the resulting pellet with 0.5 ml distilled water for 30 sec before restoring osmolarity to the remaining cells by the addition of 5 ml of HBSS. Samples are recentrifuged at 2000 rpm for 10 minutes at 5° C. and supernatant aspirated. The resulting pellet is resuspended in 1 ml of HBSS. Total cell number is determined by Trypan Blue (Sigma Chemical, St. Louis, Mo.) exclusion from an aliquot of cell suspension using a hemocytometer or coulter counter. For differential cell counts, an aliquot of the cell suspension is centrifuged in a Cytospin (5 min, 1300 rpm; Shandon Southern Instruments, Sewickley, Pa.) and the slides fixed and stained with a modified Wright's stain (Hema 3 stain kit, Fisher Scientific). Standard morphological criteria is used in classifying at least 300 cells under light microscopy. Data in Table 3 is expressed as BAL cells×10^4/animal for neutrophils and total cells, or percent inhibition of the LPS induced BAL fluid neutrophilia response.

The structures appear in SMILES notation. Bridge positions count the residues as written; N and C are the ends. Square brackets hold non-standard residues; d marks the D form. Peptide text beside a SMILES is read from it. ξ: configuration not given here. Thr(3ξ) = CC(O)[C@H](N)C(=O)O; Nle = CCCC[C@H](N)C(=O)O

As for `CCCC[C@H](NC(=O)[C@H](CCC(N)=O)NC(=O)[C@H](CCCCN)NC(=O)[C@H](CCCNC(=N)N)NC(=O)[C@H](CC(C)C)NC(=O)[C@H](CCCCN)NC(=O)[C@@H](NC(=O)[C@H](Cc1ccc(O)cc1)NC(=O)[C@H](CC(N)=O)NC(=O)[C@H](CCC(=O)O)NC(=O)[C@@H](NC(=O)[C@H](Cc1ccccc1)NC(=O)[C@H](CO)NC(=O)[C@H](C)NC(=O)[C@H](CC(=O)O)NC(=O)[C@H](CO)NC(=O)[C@H](Cc1c[nH]cn1)NC(C)=O)C(C)O)C(C)O)C(=O)N[C@@H](CCC(=O)O)C(=O)N[C@@H](C)C(=O)N[C@@H](CCCCN)C(=O)N[C@H]1CCCCNC(=O)C[C@@H](C(=O)N[C@@H](CC(C)C)C(=O)N[C@@H](CCCCN)C(=O)N[C@@H](CCCCN)C(=O)NCC(=O)NCC(=O)N[C@H](C(N)=O)C(C)O)NC(=O)[C@H](CC(N)=O)NC(=O)[C@H](CC(C)C)NC(=O)[C@H](Cc2ccc(O)cc2)NC1=O` (stereo partly drawn) [Example 7] (Ac-HSDASF[Thr(3ξ)]ENY[Thr(3ξ)]KLRKQ[Nle]EAKKYLNDLKKGG[Thr(3ξ)]-NH2; lactam 21-25), the EC50 on VPAC2 receptor amounted to 632 nM. In data set [1], this compound displayed a Relative elastase stability of 16.4. Also, in data set [2] (Dose 0.01%), the “Inhibition of LPS-induced neutrophilia” value is on record as “++ (++ >30%)”.

As for `CCCC[C@H](NC(=O)[C@H](CCC(N)=O)NC(=O)[C@H](CCCCN)NC(=O)[C@H](CCCNC(=N)N)NC(=O)[C@H](CC(C)C)NC(=O)[C@H](CCCCN)NC(=O)[C@@H](NC(=O)[C@H](Cc1ccc(O)cc1)NC(=O)[C@H](CC(N)=O)NC(=O)[C@H](CCC(=O)O)NC(=O)[C@@H](NC(=O)[C@H](Cc1ccccc1)NC(=O)[C@H](CO)NC(=O)[C@H](C)NC(=O)[C@H](CC(=O)O)NC(=O)[C@H](CO)NC(=O)[C@H](Cc1c[nH]cn1)NC(C)=O)C(C)O)C(C)O)C(=O)N[C@@H](C)C(=O)N[C@@H](C)C(=O)N[C@@H](CCCCN)C(=O)N[C@H]1CCCCNC(=O)C[C@@H](C(=O)N[C@@H](CC(C)C)C(=O)N[C@@H](CC(C)C)C(=O)N[C@@H](CCCCN)C(=O)NCC(=O)NCC(=O)N[C@H](C(N)=O)C(C)O)NC(=O)[C@H](CC(N)=O)NC(=O)[C@H](CC(C)C)NC(=O)[C@H](Cc2ccc(O)cc2)NC1=O` (stereo partly drawn) [Example 8] (Ac-HSDASF[Thr(3ξ)]ENY[Thr(3ξ)]KLRKQ[Nle]AAKKYLNDLLKGG[Thr(3ξ)]-NH2; lactam 21-25), on VPAC2 receptor, the EC50 worked out at 11.4 nM. The compound further had a Relative elastase stability in data set [1] of 3.5. Further, the “Inhibition of LPS-induced neutrophilia” value in data set [2] (Dose 0.1%) is reported as “++ (++ >30%)”.

On to `CCCC[C@H](NC(=O)[C@H](CCC(N)=O)NC(=O)[C@H](CCCCN)NC(=O)[C@H](CCCNC(=N)N)NC(=O)[C@H](CC(C)C)NC(=O)[C@H](CCCCN)NC(=O)[C@@H](NC(=O)[C@H](Cc1ccc(O)cc1)NC(=O)[C@H](CC(N)=O)NC(=O)[C@H](CCC(=O)O)NC(=O)[C@@H](NC(=O)[C@H](Cc1ccccc1)NC(=O)[C@H](CO)NC(=O)[C@H](C)NC(=O)[C@H](CC(=O)O)NC(=O)[C@H](CO)NC(=O)[C@H](Cc1c[nH]cn1)NC(C)=O)C(C)O)C(C)O)C(=O)N[C@@H](CCCCN)C(=O)N[C@@H](C)C(=O)N[C@@H](CCCCN)C(=O)N[C@H]1CCCCNC(=O)C[C@@H](C(=O)N[C@@H](CC(C)C)C(=O)N[C@@H](CCCCN)C(=O)N[C@@H](CCCCN)C(=O)NCC(=O)NCC(=O)N[C@H](C(N)=O)C(C)O)NC(=O)[C@H](CC(N)=O)NC(=O)[C@H](CC(C)C)NC(=O)[C@H](Cc2ccc(O)cc2)NC1=O` (stereo partly drawn) [Example 9] (Ac-HSDASF[Thr(3ξ)]ENY[Thr(3ξ)]KLRKQ[Nle]KAKKYLNDLKKGG[Thr(3ξ)]-NH2; lactam 21-25), for which, at VPAC2 receptor, the EC50 worked out at 1200 nM. The same compound came in with a Relative elastase stability in data set [1] of 12.0. In addition, the “Inhibition of LPS-induced neutrophilia” value in data set [2] (Dose 0.01%) is listed as “+ (+ 10-30%)”.

Turning to `CCCC[C@H](NC(=O)[C@H](C)NC(=O)[C@H](CCCCN)NC(=O)[C@H](CCCNC(=N)N)NC(=O)[C@H](CC(C)C)NC(=O)[C@H](CCCCN)NC(=O)[C@@H](NC(=O)[C@H](Cc1ccc(O)cc1)NC(=O)[C@H](CC(N)=O)NC(=O)[C@H](CCC(=O)O)NC(=O)[C@@H](NC(=O)[C@H](Cc1ccccc1)NC(=O)[C@H](CO)NC(=O)[C@H](C)NC(=O)[C@H](CC(=O)O)NC(=O)[C@H](CO)NC(=O)[C@H](Cc1c[nH]cn1)NC(C)=O)C(C)O)C(C)O)C(=O)N[C@@H](CCC(=O)O)C(=O)N[C@@H](C)C(=O)N[C@@H](CCCCN)C(=O)N[C@H]1CCCCNC(=O)C[C@@H](C(=O)N[C@@H](CC(C)C)C(=O)N[C@@H](CCCCN)C(=O)N[C@@H](CCCCN)C(=O)NCC(=O)NCC(=O)N[C@H](C(N)=O)C(C)O)NC(=O)[C@H](CC(N)=O)NC(=O)[C@H](CC(C)C)NC(=O)[C@H](Cc2ccc(O)cc2)NC1=O` (stereo partly drawn) [Example 10] (Ac-HSDASF[Thr(3ξ)]ENY[Thr(3ξ)]KLRKA[Nle]EAKKYLNDLKKGG[Thr(3ξ)]-NH2; lactam 21-25), the concentration giving a half-maximal response (EC50) on VPAC2 receptor worked out at 447 nM. The same compound displayed a Relative elastase stability in data set [1] of 7.4. Further, the “Inhibition of LPS-induced neutrophilia” value in data set [2] (Dose 0.01%) was “++ (++ >30%)”.

For `CCCC[C@H](NC(=O)[C@H](CCC(N)=O)NC(=O)[C@H](CCCCN)NC(=O)[C@H](CCCNC(=N)N)NC(=O)[C@H](CC(C)C)NC(=O)[C@H](CCCCN)NC(=O)[C@@H](NC(=O)[C@H](Cc1ccc(O)cc1)NC(=O)[C@H](CC(N)=O)NC(=O)[C@H](CCC(=O)O)NC(=O)[C@@H](NC(=O)[C@H](Cc1ccccc1)NC(=O)[C@H](CO)NC(=O)[C@H](C)NC(=O)[C@H](CC(=O)O)NC(=O)[C@H](CO)NC(=O)[C@H](Cc1c[nH]cn1)NC(C)=O)C(C)O)C(C)O)C(=O)N[C@@H](C)C(=O)N[C@@H](C)C(=O)N[C@@H](CCCCN)C(=O)N[C@H]1CCCCNC(=O)C[C@@H](C(=O)N[C@@H](CC(C)C)C(=O)N[C@@H](CC(C)C)C(=O)N[C@@H](CC(N)=O)C(=O)NCC(=O)NCC(=O)N[C@H](C(N)=O)C(C)O)NC(=O)[C@H](CC(N)=O)NC(=O)[C@H](CC(C)C)NC(=O)[C@H](Cc2ccc(O)cc2)NC1=O` (stereo partly drawn) [Example 11] (Ac-HSDASF[Thr(3ξ)]ENY[Thr(3ξ)]KLRKQ[Nle]AAKKYLNDLLNGG[Thr(3ξ)]-NH2; lactam 21-25), the EC50 at VPAC2 receptor stood at 16.8 nM. Moreover, the Relative elastase stability in data set [1] was 2.4. For the same compound, the “Inhibition of LPS-induced neutrophilia” value in data set [2] (Dose 0.01%) is recorded as “++ (++ >30%)”.
